# Reference: patent publication US11220496B2, “Compounds and method for treating autoimmune diseases” (Rigel Pharmaceuticals, Inc., priority 2013, dated 2022)
# Where a name gives a salt, the structure may show the parent alone.
# Assay: Human primary T-cell proliferation stimulated by IL-2 (CellTiter-Glo)
# Format: cell-based
# Conditions: primary human T-cells, IL-2 stimulated proliferation, 72 hours, ATP readout; read-out: Activity (IC50, inhibition of JAK3 activity)
# Text: One means of assaying for such inhibition is detection of the effect of the 2,4-substituted pyrimidinediamine compounds on the upregulation of downstream gene products. For example, the activity of the disclosed compounds may be characterized by assaying the effect of the 2,4-substituted pyrimidinediamine compounds described herein on the proliferative response of primary human T-cells. In this assay, primary human T-cells derived from peripheral blood and pre-activated through stimulation of the T-cell receptor and CD28, proliferate in culture in response to the cytokine Interleukin-2 (IL-2). This proliferative response is dependent on the activation of JAK1 and JAK3 tyrosine kinases, which phosphorylate and activate the transcription factor Stat-5. The primary human T-cells are incubated with the 2,4-substituted pyrimidinediamine compounds in the presence of IL-2 for 72 hours and at the assay endpoint intracellular ATP concentrations are measured to assess cell viability. A reduction in cell proliferation compared to control conditions is indicative of inhibition of the JAK kinase pathway.
# Primary human T-cells derived from peripheral blood and pre-activated through stimulation of the T-cell receptor and CD28, proliferate in vitro in response to the cytokine Interleukin-2 (IL-2). This proliferative response is dependent on the activation of JAK-1 and JAK-3 tyrosine kinases, which phosphorylate and activate the transcription factor Stat-5.
# Human primary T-cells were prepared as follows. Whole blood was obtained from a healthy volunteer, mixed 1:1 with PBS, layered on to Ficoll Hypaque (Amersham Pharmacia Biotech, Piscataway, N.J., Catalog #17-1440-03) in 2:1 blood/PBS:ficoll ratio and centrifuged for 30 min at 4° C. at 1750 rpm. The lymphocytes at the serum: ficoll interface were recovered and washed twice with 5 volumes of PBS. The cells were resuspended in Yssel's medium (Gemini Bio-products, Woodland, Calif., Catalog #400-103) containing 40 U/mL recombinant IL2 (R and D Systems, Minneapolis, Minn., Catalog #202-IL (20 μg)) and seeded into a flask pre-coated with 1 μg/mL anti-CD3 (BD Pharmingen, San Diego, Calif., Catalog #555336) and 5 μg/mL anti-CD28 (Immunotech, Beckman Coulter of Brea Calif., Catalog #IM1376). The primary T-cells were stimulated for 3-4 days, then transferred to a fresh flask and maintained in RPMI with 10% FBS and 40 U/mL IL-2.
# The day prior to the assay set up, primary T-cells were centrifuged and resuspended in fresh RPMI with 10% FBS but without IL-2 and starved overnight. For the assay, the primary T-cells were centrifuged and resuspended Yssel's medium at 2×10^6 cells/mL. 50 μL of cell suspension containing 80 U/mL IL-2 was added to each well of a flat bottom 96 well black plate. For the unstimulated control, IL-2 was omitted from the last column on the plate. Compounds were serially diluted in dimethyl sulfoxide (DMSO, 99.7% pure, cell culture tested, Sigma-Aldrich, St. Louis, Mo., Catalog No. D2650) from 5 mM in 3-fold dilutions, and then diluted 1:250 in Yssel's medium. 50 μL of 2× compound was added per well in duplicate and the cells were allowed to proliferate for 72 hours at 37° C.
# Proliferation was measured using CellTiter-Glo® Luminescent Cell Viability Assay (Promega), which determines the number of viable cells in culture based on quantitation of the ATP present, as an indicator of metabolically active cells. The substrate was thawed and allowed to come to ambient temperature. After mixing the Cell Titer-Glo reagent and diluent together, 100 μL was added to each well. The plates were mixed on an orbital shaker for two minutes to induce lysis and incubated at ambient temperature for an additional ten minutes to allow the signal to equilibrate. Detection was performed using a Wallac Victor2 1420 multilabel counter purchased from Perkin Elmer, Shelton, Conn.
row,SMILES,IC50 [nM]
1,"Cc1cnc(Nc2cc(C)c(C)c(C)c2)nc1Nc1ccc2oc(=O)[nH]c2c1 [Compound A1, N2-(3,4,5-trimethyl)phenyl-5-methyl-N4-(2-oxo-2,3-dihydro-1,3-benzoxazol-5-yl)-2,4-pyrimidinediamine]",< 500
2,"Cc1cnc(Nc2ccc(C(N)=O)cc2)nc1Nc1ccc2oc(=O)[nH]c2c1 [Compound A3, N4-(benzo[d]oxazol-2(3H)-on-5-yl)-N2-(4-aminocarbonylphenyl)-5-methylpyrimidine-2,4-diamine]",< 500
3,"Cc1cc(CF)cc(Nc2ncc(C)c(Nc3ccc4oc(=O)[nH]c4c3)n2)c1 [Compound A7, 5-(2-(3-(fluoromethyl)-5-methylphenylamino)-5-methylpyrimidin-4-ylamino)benzo[d]oxazol-2(3H)-one]",< 500
4,"Cc1ccc(Nc2ncc(C)c(Nc3ccc4oc(=O)[nH]c4c3)n2)cc1C [Compound A10, 5-[2-(3,4-dimethyl-phenylamino)-5-methyl-pyrimidin-4-ylamino]-3H-benzooxazol-2-one]",< 500
5,"Cc1cnc(Nc2ccc3cnoc3c2)nc1Nc1ccc2oc(=O)[nH]c2c1 [Compound A12, 5-(2-(benzo[d]isoxazol-6-ylamino)-5-methylpyrimidin-4-ylamino)benzo[d]oxazol-2(3H)-one]",< 500
6,"COc1cc(Nc2ncc(C)c(Nc3ccc4oc(=O)n(COP(=O)(O)O)c4c3)n2)cc(C)c1F [Compound A16, Sodium (5-(2-(4-fluoro-3-methoxy-5-methylphenylamino)-5-methylpyrimidin-4-ylamino)-2-oxobenzo[d]oxazol-3(2H)-yl)methyl phosphate]",500 to 5000
7,"Cc1cnc(Nc2cc(C)c(C)c(C)c2)nc1Nc1ccc2oc(=O)n(COP(=O)(O)O)c2c1 [Compound A17, 5-methyl-N4-[3-(phosphonooxy)methyl-2-oxo-2,3-dihydro-1,3-benzoxazol-5-yl]-N2-(3,4,5-trimethyl)phenyl-2,4-pyrimidinediamine bis-sodium salt]",500 to 5000
8,"Cc1cnc(Nc2cc(C)c(F)c(C)c2)nc1Nc1ccc2oc(=O)n(COP(=O)(O)O)c2c1 [Compound A18, N2-(3,5-dimethyl-4-fluoro)phenyl-5-methyl-N4-[3-(phosphonooxy)methyl-2-oxo-2,3-dihydro-1,3-benzoxazol-5-yl]-2,4-pyrimidinediamine bis-sodium salt]",500 to 5000

# More lines, now with the values ahead:
row,IC50 [nM],SMILES
1,< 500,"Cc1cnc(Nc2ccc(C(=O)Nc3ccccc3)cc2)nc1Nc1ccc2oc(=O)[nH]c2c1 [Compound A2, 4-[5-methyl-4-(2-oxo-2,3-dihydro-benzoxazol-5-ylamino)-pyrimidin-2-ylamino]-N-phenyl-benzamide]"
2,< 500,"Cc1cnc(Nc2ccc(C(=O)NC3CCC3)cc2)nc1Nc1ccc2oc(=O)[nH]c2c1 [Compound A5, N-cyclobutyl-4-[5-methyl-4-(2-oxo-2,3-dihydro-benzooxazol-5-ylamino)-pyrimidin-2-ylamino]-benzamide]"
3,< 500,"Cc1ccc(Nc2ncc(C)c(Nc3ccc4oc(=O)[nH]c4c3)n2)cc1F [Compound A8, N2-(3-fluoro-4-methyl)phenyl-5-methyl-N4-(2-oxo-2,3-dihydro-1,3-benzoxazol-5-yl)-2,4-pyrimidinediamine]"
4,< 500,"COc1cc(Nc2ncc(C)c(Nc3ccc4oc(=O)[nH]c4c3)n2)cc(Cl)c1OC [Compound A11, 5-(2-(3-chloro-4,5-dimethoxyphenylamino)-5-methylpyrimidin-4-ylamino)benzo[d]oxazol-2(3H)-one]"
5,< 500,"Cc1cnc(Nc2cc(C)c(F)c(C)c2)nc1Nc1ccc2oc(=O)[nH]c2c1 [Compound A14, N2-(3,5-dimethyl-4-fluoro)phenyl-5-methyl-N4-(2-oxo-2,3-dihydro-1,3-benzoxazol-5-yl)-2,4-pyrimidinediamine]"
6,500 to 5000,"COc1cc(Nc2ncc(C)c(Nc3ccc4oc(=O)n(COP(=O)(O)O)c4c3)n2)cc(C(F)(F)F)c1 [Compound A15, N2-(3-methoxy-5-trifluoromethyl)phenyl-5-methyl-N4-[3-(phosphonooxy)methyl-2-oxo-2,3-dihydro-1,3-benzoxazol-5-yl]-2,4-pyrimidinediamine bis-sodium salt]"
7,< 500,"COc1cc(Nc2ncc(C)c(Nc3ccc4oc(=O)[nH]c4c3)n2)cc(C)c1F [Compound I-432, 5-(2-(4-fluoro-3-methoxy-5-methylphenylamino)-5-methylpyrimidin-4-ylamino)benzo[d]oxazol-2(3H)-one]"
